Assay results published in US10660877B2 (BRISTOL-MYERS SQUIBB COMPANY, priority 2016, dated 2020).
Like-named read-outs stand apart in the source and are kept apart here.

Columns and labels:
human TLR8 = human TLR8 (Homo sapiens (Human), UniProt Q9NR97); test: TLR8 inhibition reporter assay (HEK-Blue cells, SEAP reporter, R848 stimulation);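 note: compounds tested from 0.05 nM to 50 µM, 22 h at 37 °C, SEAP measured with HEK-Blue Detection, inhibition relative to agonist plus DMSO versus a known inhibitor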
Sequence of human TLR8 (Q9NR97 27-1041): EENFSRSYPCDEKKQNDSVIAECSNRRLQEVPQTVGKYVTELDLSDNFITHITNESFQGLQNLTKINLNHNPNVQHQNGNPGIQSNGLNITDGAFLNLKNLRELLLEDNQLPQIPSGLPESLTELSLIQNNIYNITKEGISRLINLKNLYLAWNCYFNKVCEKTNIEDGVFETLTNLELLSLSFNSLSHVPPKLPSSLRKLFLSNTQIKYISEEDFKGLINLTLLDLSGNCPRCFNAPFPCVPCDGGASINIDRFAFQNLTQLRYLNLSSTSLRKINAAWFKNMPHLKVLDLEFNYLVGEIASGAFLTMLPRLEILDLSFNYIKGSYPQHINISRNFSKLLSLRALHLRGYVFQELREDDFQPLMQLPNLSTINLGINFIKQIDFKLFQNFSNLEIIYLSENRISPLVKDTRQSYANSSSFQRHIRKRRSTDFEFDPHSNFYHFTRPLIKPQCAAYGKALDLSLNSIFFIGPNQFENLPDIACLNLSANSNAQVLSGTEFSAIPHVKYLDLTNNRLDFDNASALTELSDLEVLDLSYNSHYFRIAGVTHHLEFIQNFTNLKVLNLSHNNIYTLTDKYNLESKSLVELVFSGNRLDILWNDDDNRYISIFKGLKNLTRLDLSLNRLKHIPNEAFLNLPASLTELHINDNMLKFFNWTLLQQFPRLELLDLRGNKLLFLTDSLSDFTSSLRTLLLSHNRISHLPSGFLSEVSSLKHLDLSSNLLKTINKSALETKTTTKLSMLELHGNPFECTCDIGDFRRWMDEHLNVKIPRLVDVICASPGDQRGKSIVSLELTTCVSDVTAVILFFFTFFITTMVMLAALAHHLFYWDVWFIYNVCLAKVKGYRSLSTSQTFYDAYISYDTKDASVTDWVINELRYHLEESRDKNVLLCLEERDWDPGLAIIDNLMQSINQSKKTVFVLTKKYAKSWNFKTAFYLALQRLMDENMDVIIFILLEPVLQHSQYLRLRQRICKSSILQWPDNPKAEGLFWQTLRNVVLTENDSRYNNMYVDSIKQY

human TLR9 = human TLR9 (Homo sapiens (Human), UniProt Q9NR96); test: TLR9 inhibition reporter assay (HEK-Blue cells, SEAP reporter, ODN2006 stimulation);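 note: compounds tested over 0.05 nM to 50 µM, 22 h incubation, inhibition taken as SEAP signal drop from agonist plus DMSO wells toward a known inhibitor control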
Sequence of human TLR9 (Q9NR96 26-1032): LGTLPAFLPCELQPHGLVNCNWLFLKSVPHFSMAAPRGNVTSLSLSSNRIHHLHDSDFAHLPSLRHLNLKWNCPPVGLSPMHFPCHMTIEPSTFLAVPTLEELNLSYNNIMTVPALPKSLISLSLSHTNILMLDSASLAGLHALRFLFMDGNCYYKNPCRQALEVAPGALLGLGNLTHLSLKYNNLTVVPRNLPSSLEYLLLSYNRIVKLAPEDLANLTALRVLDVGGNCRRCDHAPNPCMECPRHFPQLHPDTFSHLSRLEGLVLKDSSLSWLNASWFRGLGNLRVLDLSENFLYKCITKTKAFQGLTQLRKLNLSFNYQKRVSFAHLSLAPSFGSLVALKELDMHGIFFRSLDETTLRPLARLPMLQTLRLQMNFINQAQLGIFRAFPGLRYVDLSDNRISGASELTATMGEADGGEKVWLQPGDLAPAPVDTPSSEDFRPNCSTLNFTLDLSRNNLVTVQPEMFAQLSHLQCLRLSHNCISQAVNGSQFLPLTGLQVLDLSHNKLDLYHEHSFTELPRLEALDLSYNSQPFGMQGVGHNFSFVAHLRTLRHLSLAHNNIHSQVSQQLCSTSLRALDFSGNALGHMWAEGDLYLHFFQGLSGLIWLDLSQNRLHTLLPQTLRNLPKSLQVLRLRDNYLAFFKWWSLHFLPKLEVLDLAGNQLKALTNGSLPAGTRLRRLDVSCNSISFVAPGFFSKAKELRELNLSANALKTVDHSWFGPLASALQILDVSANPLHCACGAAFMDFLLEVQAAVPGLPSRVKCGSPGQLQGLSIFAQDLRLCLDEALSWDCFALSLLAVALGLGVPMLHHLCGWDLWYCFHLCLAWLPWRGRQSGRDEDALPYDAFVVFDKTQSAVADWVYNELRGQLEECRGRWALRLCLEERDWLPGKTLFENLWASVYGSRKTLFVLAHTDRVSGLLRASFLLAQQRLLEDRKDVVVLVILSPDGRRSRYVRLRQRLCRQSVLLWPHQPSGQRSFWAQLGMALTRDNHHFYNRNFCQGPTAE

human TLR7 = human TLR7 (Homo sapiens (Human), UniProt Q9NYK1); test: TLR7 inhibition reporter assay (HEK-Blue cells, SEAP reporter, gardiquimod stimulation); assay type: cell-based
Sequence of human TLR7 (Q9NYK1 27-1049): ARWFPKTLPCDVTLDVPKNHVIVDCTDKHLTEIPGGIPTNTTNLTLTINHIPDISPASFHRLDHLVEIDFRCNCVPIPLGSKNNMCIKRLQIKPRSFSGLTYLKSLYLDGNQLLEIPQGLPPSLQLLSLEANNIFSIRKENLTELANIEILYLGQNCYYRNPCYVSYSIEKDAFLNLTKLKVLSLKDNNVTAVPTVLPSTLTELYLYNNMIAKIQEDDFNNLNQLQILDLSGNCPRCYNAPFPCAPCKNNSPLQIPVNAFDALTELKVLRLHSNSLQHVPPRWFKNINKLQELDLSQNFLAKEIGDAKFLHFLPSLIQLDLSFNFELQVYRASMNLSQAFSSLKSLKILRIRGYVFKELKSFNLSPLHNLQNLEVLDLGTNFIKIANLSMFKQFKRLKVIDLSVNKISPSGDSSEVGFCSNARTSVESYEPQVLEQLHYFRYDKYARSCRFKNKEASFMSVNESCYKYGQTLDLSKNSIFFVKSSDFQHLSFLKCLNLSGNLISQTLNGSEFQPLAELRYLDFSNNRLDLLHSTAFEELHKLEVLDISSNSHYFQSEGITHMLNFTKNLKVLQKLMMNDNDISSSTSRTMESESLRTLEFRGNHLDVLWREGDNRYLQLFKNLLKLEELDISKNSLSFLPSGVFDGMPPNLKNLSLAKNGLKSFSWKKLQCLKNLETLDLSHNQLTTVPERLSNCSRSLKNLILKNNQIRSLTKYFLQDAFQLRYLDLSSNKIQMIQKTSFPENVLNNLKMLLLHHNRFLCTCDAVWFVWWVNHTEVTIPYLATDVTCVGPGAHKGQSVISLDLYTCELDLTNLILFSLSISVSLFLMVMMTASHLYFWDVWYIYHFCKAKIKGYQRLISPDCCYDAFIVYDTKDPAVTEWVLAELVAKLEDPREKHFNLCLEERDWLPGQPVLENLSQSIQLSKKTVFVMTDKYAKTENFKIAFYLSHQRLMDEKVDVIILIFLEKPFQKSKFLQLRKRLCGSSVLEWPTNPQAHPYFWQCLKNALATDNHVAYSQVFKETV

[1] = read-out: TLR8 IC50, HEK-Blue cells overexpressing human TLR8, R848 15.9 μM
[2] = read-out: TLR9 IC50, HEK-Blue cells overexpressing human TLR9, ODN2006 5 nM
[3] = HEK-Blue cells overexpressing human TLR7, gardiquimod 7.5 μM
[4] = read-out: TLR8 IC50, HEK-Blue cells, R848 15.9 μM
[5] = read-out: TLR9 IC50, HEK-Blue cells, ODN2006 5 nM
[6] = HEK-Blue cells, gardiquimod 7.5 μM

Row | Structure (SMILES) | IC50 (human TLR8; [1]) [nM] | IC50 (human TLR9; [2]) [nM] | IC50 (human TLR7; [3]) [nM] | IC50 (human TLR8; [4]) [nM] | IC50 (human TLR9; [5]) [nM] | IC50 (human TLR7; [6]) [nM]
1 | Cc1cc(-c2[nH]c3ccc(C4CCN(C(=O)Cn5nnc(N6CCOCC6)n5)CC4)cc3c2C(C)C)cc(C)n1 [Example 149, 1-(4-(2-(2,6-dimethylpyridin-4-yl)-3-isopropyl-1H-indol-5-yl)piperidin-1-yl)-2-(5-morpholino-2H-tetrazol-2-yl)ethan-1-one] | 143 | 16100 | 21.6 |  |  | 
2 | Cc1cc(-c2[nH]c3ccc(C4CCN(CC5(C)COC5)CC4)cc3c2C(C)C)ccn1 [Example 867, 3-isopropyl-5-(1-((3-methyloxetan-3-yl)methyl)piperidin-4-yl)-2-(2-methylpyridin-4-yl)-1H-indole] |  |  |  | 3.7 | 794 | 16.3
3 | Cc1cc(-c2[nH]c3ccc(C4CCN(S(=O)(=O)c5ccc(F)cc5)CC4)cc3c2C(C)C)ccn1 [Example 551, 5-(1-((4-fluorophenyl)sulfonyl)piperidin-4-yl)-3-isopropyl-2-(2-methylpyridin-4-yl)-1H-indole] | 1030 | > 50000 | 486 |  |  | 
4 | CCc1c(-c2ccnc(C)c2)[nH]c2ccc(C3CCN(C(=O)C4CCNC4)CC3)cc12 (stereo not drawn) [Example 595, (4-(3-ethyl-2-(2-methylpyridin-4-yl)-1H-indol-5-yl)piperidin-1-yl)(pyrrolidin-3-yl)methanone] | 32.7 | 348 | 84.7 |  |  | 
5 | Cc1cc(-c2[nH]c3ccc(C4CCN(C(C)CF)CC4)cc3c2C(C)C)c(C)cn1 (stereo not drawn) [Example 870, 2-(2,5-dimethylpyridin-4-yl)-5-(1-(1-fluoropropan-2-yl)piperidin-4-yl)-3-isopropyl-1H-indole] |  |  |  | 4.1 | 1440 | 19.7
6 | Cc1cc(-c2[nH]c3ccc(C4CCN(CC(=O)N5CCC(O)CC5)CC4)cc3c2C(C)C)cc(C)n1 [Example 230, 2-(4-(2-(2,6-dimethylpyridin-4-yl)-3-isopropyl-1H-indol-5-yl)piperidin-1-yl)-1-(4-hydroxypiperidin-1-yl)ethan-1-one] | 17 | 74 | 4 |  |  | 
7 | Cc1cc(-c2[nH]c3ccc(C4CCN(CC(=O)NCCC(C)C)CC4)cc3c2C(C)C)cc(C)n1 [Example 237, 2-(4-(2-(2,6-dimethylpyridin-4-yl)-3-isopropyl-1H-indol-5-yl)piperidin-1-yl)-N-isopentylacetamide] | 51.1 | 1890 | 24.9 |  |  | 
8 | Cc1cc(-c2[nH]c3ccc(C4CCN(C(=O)CC5CC(=O)NC(=O)N5)CC4)cc3c2C(C)C)cc(C)n1 (stereo not drawn) [Example 129, 6-(2-(4-(2-(2,6-dimethylpyridin-4-yl)-3-isopropyl-1H-indol-5-yl)piperidin-1-yl)-2-oxoethyl)dihydropyrimidine-2,4(1H,3H)-dione] | 69.8 | 32300 | 18.1 |  |  | 
9 | Cc1cc(-c2[nH]c3ccc(C4CCNCC4)cc3c2CC(F)F)cc(C)n1 [Example 492, 3-(2,2-difluoroethyl)-2-(2,6-dimethylpyridin-4-yl)-5-(piperidin-4-yl)-1H-indole] | 54.1 | 539 | 15.8 |  |  | 
10 | Cc1cc(-c2[nH]c3ccc(C4CCN(C(=O)CN5CCCC5=O)CC4)cc3c2C(C)C)cc(C)n1 [Example 154, 1-(2-(4-(2-(2,6-dimethylpyridin-4-yl)-3-isopropyl-1H-indol-5-yl)piperidin-1-yl)-2-oxoethyl)pyrrolidin-2-one] | 29.5 | > 50000 | 5.9 |  |  | 
11 | Cc1cc(-c2[nH]c3ccc(C4CCN(Cc5ncon5)CC4)cc3c2C(C)C)c(F)cn1 [Example 735, 3-((4-(2-(5-fluoro-2-methylpyridin-4-yl)-3-isopropyl-1H-indol-5-yl)piperidin-1-yl)methyl)-1,2,4-oxadiazole] | 50 | > 50000 | 22.3 |  |  | 
12 | Cc1cc(-c2[nH]c3ccc(C4CCN(C5CCOC6CCCC65)CC4)cc3c2C(C)C)cc(C)n1 (stereo not drawn) [Example 458, 2-(2,6-dimethylpyridin-4-yl)-3-isopropyl-5-(1-(octahydrocyclopenta[b]pyran-4-yl)piperidin-4-yl)-1H-indole] | 21.3 | 534 | 16.6 |  |  | 

The remaining lines, values ahead:

Row | IC50 (human TLR8; [1]) [nM] | IC50 (human TLR9; [2]) [nM] | IC50 (human TLR7; [3]) [nM] | IC50 (human TLR8; [4]) [nM] | IC50 (human TLR9; [5]) [nM] | IC50 (human TLR7; [6]) [nM] | Structure (SMILES)
13 | 1.4 | 364 | 0.8 |  |  |  | Cc1cc(-c2[nH]c3ccc(C4CCN(CC5COC5)CC4)cc3c2C(C)C)cc(C)n1 [Example 333, 2-(2,6-dimethylpyridin-4-yl)-3-isopropyl-5-(1-(oxetan-3-ylmethyl)piperidin-4-yl)-1H-indole]
14 | 4.4 | 4160 | 13.9 |  |  |  | CNC(=O)CN1CCC(c2ccc3[nH]c(-c4cc(C)ncc4C)c(C(C)C)c3c2)CC1 [Example 653, 2-(4-(2-(2,5-dimethylpyridin-4-yl)-3-isopropyl-1H-indol-5-yl)piperidin-1-yl)-N-methylacetamide]
15 | 4.5 | 2990 | 3 |  |  |  | Cc1cc(-c2[nH]c3ccc(C4CCN(C5CCOC5)CC4)cc3c2C(C)C)c(F)cn1 (stereo not drawn) [Example 725, 2-(5-fluoro-2-methylpyridin-4-yl)-3-isopropyl-5-(1-(tetrahydrofuran-3-yl)piperidin-4-yl)-1H-indole]
16 | 5.9 | 399 | 1.3 |  |  |  | Cc1cc(-c2[nH]c3ccc(C4CCN(C(=O)CCN(C)C)CC4)cc3c2C(C)C)cc(C)n1 [Example 97, 3-(dimethylamino)-1-(4-(2-(2,6-dimethylpyridin-4-yl)-3-isopropyl-1H-indol-5-yl)piperidin-1-yl)propan-1-one]
17 | 0.6 | 1530 | 15.5 |  |  |  | Cc1cc(-c2[nH]c3ccc(C4CCN(Cc5ccn[nH]5)CC4)cc3c2C(C)C)c(C)cn1 [Example 681, 5-(1-((1H-pyrazol-5-yl)methyl)piperidin-4-yl)-2-(2,5-dimethylpyridin-4-yl)-3-isopropyl-1H-indole]
18 | 6.4 | 691 | 1.3 |  |  |  | Cc1cc(-c2[nH]c3ccc(C4CCN(C(=O)CN5CC[C@@H](O)C5)CC4)cc3c2C(C)C)cc(C)n1 [Example 391, (R)-1-(4-(2-(2,6-dimethylpyridin-4-yl)-3-isopropyl-1H-indol-5-yl)piperidin-1-yl)-2-(3-hydroxypyrrolidin-1-yl)ethan-1-one]
19 | 5 | 1590 | 2.4 |  |  |  | CNCC(=O)N1CCC(c2ccc3[nH]c(-c4cc(C)ncc4F)c(C(C)C)c3c2)CC1 [Example 621, 1-(4-(2-(5-fluoro-2-methylpyridin-4-yl)-3-isopropyl-1H-indol-5-yl)piperidin-1-yl)-2-(methylamino)ethan-1-one]
20 | 16.8 | 924 | 2.4 |  |  |  | CCCCN(CCO)CC(=O)N1CCC(c2ccc3[nH]c(-c4cc(C)nc(C)c4)c(C(C)C)c3c2)CC1 [Example 414, 2-(butyl(2-hydroxyethyl)amino)-1-(4-(2-(2,6-dimethylpyridin-4-yl)-3-isopropyl-1H-indol-5-yl)piperidin-1-yl)ethan-1-one]
21 | 13.6 | 279 | 3.7 |  |  |  | COC[C@@H]1CCCN1C(=O)CN1CCC(c2ccc3[nH]c(-c4cc(C)nc(C)c4)c(C(C)C)c3c2)CC1 [Example 263, (S)-2-(4-(2-(2,6-dimethylpyridin-4-yl)-3-isopropyl-1H-indol-5-yl)piperidin-1-yl)-1-(2-(methoxymethyl)pyrrolidin-1-yl)ethan-1-one]
